Legend:
Format in all cases: cell-based
[1] = test system: multiple cancer cell lines; experiment: MTT assay on multiple cancer cell lines; settings: 0-96 μM; BCBL-1, Ramos, SU-DHL-10, HH, Jurkat, THP-1, U937, A549
Protocol: (§1) FIG. 6. Viral and cellular responses to K-Rta peptide; identification of VGN50. (a) Protein sequence alignment. FIG. 6(A) The effect of VGN50 on various cancer cell types. MTT assays were performed with the indicated cell lines treated with various VGN50 concentrations. The O.D. of mock-treated samples were set as 100%, and O.D. from detergent treated cells were set as 0%. Percentage viability+/−SD was calculated for each treatment (N=3 samples/treatment). FIG. 6(B) Viability assay with flow cytometry. Cell viability was measured in triplicate with live/dead staining and the cell killing effects on cancer cells was compared with normal peripheral blood mononuclear cells (PBMC) from three healthy donors. Results are presented as percentage viability+/−SD deviation (N=3 samples/group).
(§2) As shown in FIG. 6(a), multiple cancer cell lines were used for MTT assay to evaluate cancer cell killing efficacies of the MBK50 peptide at different concentrations (cell variability studies). […] Importantly, human peripheral blood mononuclear cells (PBMCs) from healthy donors were approximately 10-fold less sensitive to MBK-mediated killing compared to myeloid and lymphoid cancer cell lines (e.g., THP-1 and BCBL-1) as assessed by flow cytometry after live/dead staining (FIG. 6(b)). […]

[2] = test system: B cells; experiment: B cell expansion in U-bottom plate upon sCD40L or ODN 2006 stimulation; settings: 32 μM
Protocol: B cells were prepared by magnetic beads from healthy donor PBMC (n=2). Representative pictures of B cell culture in a 96 well U-bottom plate in the presence of sCD40L (T cell dependent stimulation) or ODN 2006 (TLR9 ligand)(T cell independent stimulation) at indicated concentration without or with MBK50 (16, 32 μM) or mutant peptide (32 μM). The radius of cell volume in each well roughly correlate to the total cell numbers.

[3] = test system: PEL cells; experiment: PEL cell killing by delivered peptide (MTS live-cell assay); settings: peptide delivered into PEL, a MYC-dependent cancer
Protocol: FIGS. 1A-H. Viral protein sequence based cancer drug. (FIG. 1A) Discovery of hijacking transcription machinery in KSHV reactivating cells (Chen et al., J. Virol 2017). […] (FIG. 1B) Reporter assay. KSHV ORF50 overexpression inhibits MYC activation. (FIG. 1C) Chromatin immunoprecipitation with Mass Spectrometry. Proteins inducibly interact with both ORF50 and RNA polII are shown. […] (FIG. 1E) Mapping of interacting domain. GST-pull down was performed to identify NCoA2 binding domains. Purified NCoA2 was made from recombinant baculovirus infected cells and KSHV ORF50 deletion proteins were made in E. coli. Peptides are then generated as TAT-fusion for cell penetration. (FIG. 1F) ChIP-seq and RNA-seq. ChIP-seq was performed to identify NCOA2 target genes in primary effusion lymphoma cells. NCoA2 localization is highly associated with active genes and localizes with RNA pol II at enhancer regions. […] The qRT-PCR was performed with specific primers. (FIG. 1H) Gene set enrichment analyses (GSEA). RNA sequencing was performed with peptide-treated PEL cells. […] (FIG. 1I) The peptide drug. Wt peptide or mutant peptide was incubated in culture media. Forty-eight hours later, live cells were measured by applying MTS. Cell viability was compared with no-treated samples. No treated sample was set as 1.

[4] = test system: MYC target genes; experiment: Total RNA sequencing with Gene Set Enrichment Analyses; settings: total RNA-sequence 24 hours post-drug treatment, PEL cells
Protocol: FIGS. 1A-H. Viral protein sequence based cancer drug. (FIG. 1A) Discovery of hijacking transcription machinery in KSHV reactivating cells (Chen et al., J. Virol 2017). […] (FIG. 1B) Reporter assay. KSHV ORF50 overexpression inhibits MYC activation. (FIG. 1C) Chromatin immunoprecipitation with Mass Spectrometry. Proteins inducibly interact with both ORF50 and RNA polII are shown. […] (FIG. 1E) Mapping of interacting domain. GST-pull down was performed to identify NCoA2 binding domains. Purified NCoA2 was made from recombinant baculovirus infected cells and KSHV ORF50 deletion proteins were made in E. coli. Peptides are then generated as TAT-fusion for cell penetration. (FIG. 1F) ChIP-seq and RNA-seq. ChIP-seq was performed to identify NCOA2 target genes in primary effusion lymphoma cells. NCoA2 localization is highly associated with active genes and localizes with RNA pol II at enhancer regions. […] The qRT-PCR was performed with specific primers. (FIG. 1H) Gene set enrichment analyses (GSEA). […] Forty-eight hours later, live cells were measured by applying MTS. […]
Thiol(SH)-linked alkylation for the metabolic sequencing of RNA (SLAM seq), an orthogonal-chemistry-based RNA sequencing technology detects 4-thiouridine (s4U) incorporation in RNA species at single-nucleotide resolution. […] IGV viewer was used to visualize sequence reads at MYC region (Chr. 8). […]

[5] = test system: THP-1; experiment: MTT assay, THP-1; settings: THP-1 monocytic leukemia cell line
Protocol: as §1, §2

[6] = test system: NU-DUL1 cell; experiment: Cell growth inhibition with deletion peptides
Source text: FIG. 7. Cell growth inhibition with deletion peptides identified key amino acid residue.
BCL2 mutations are frequently seen in B-cell lymphoma and the cell types are often refractory to chemotherapy due to anti-apoptotic phenotype. […] In addition, Essential Leucine residue is identified with the deletion peptides.

LSSILQGLYQLDT [MBK50]
cancer cell killing efficacy across cell lines [1]: more effective to lymphoid cell lines
cell volume in well (correlates to total cell numbers) ([2]; donor #46): significantly reduced
cell volume in well (correlates to total cell numbers) ([2]; donor #47): less so
killing of PEL cancer cells [3]: killed the cancer cells
GSEA of MYC target genes [4]: highest enrichment scores with zero false discovery rate
GSEA of MYC target genes ([4]; listed as Wt-peptide): enrichment of MYC-target gene down-regulation
sensitivity to cell killing [5]: sensitive
activity on BCL2 negative lymphoma cell lines [6]: still works

From patent US12528840B2, “Transcription active complex targeting cancer drug from viral protein sequence” (The Regents of the University of California, priority 2020, dated 2026)
